The source of these data is patent publication US20210228500A1, “CELLULAR RETINOID BINDING PROTEIN ANTAGONISTS AND USES THEREOF” (CASE WESTERN RESRVE UNIVERSITY, priority 2018, published 2021).

One experiment has as its target T1, CRBP3 (Homo sapiens, UniProt P82980).
T1 construct: thrombin cut site (residual residues after digestion) (C); 6x histidine tag (C, cleaved yes); made in house; host or cells: E. coli BL21 (DE3) (as for CRBP2)
T1 sequence (P82980 1-135): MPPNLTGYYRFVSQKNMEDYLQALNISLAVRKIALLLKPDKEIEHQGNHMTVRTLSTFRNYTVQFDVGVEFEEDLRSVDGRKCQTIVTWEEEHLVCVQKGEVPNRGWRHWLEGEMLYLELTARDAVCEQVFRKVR
Kind of experiment: Crystal structure of CRBP3 in complex with abn-CBD. The experiment is classed as binding. To be noted: crystal structure PDB No. 6E5W. As for the experimental part:
The cDNA of human CRBP3 was purchased from Origene Technologies. To introduce a thrombin cut site at the C-terminus of the protein, the cDNA was amplified by PCR and subcloned into pET30b vector. The next steps of the expression and purification of CRBP3 were identical to the procedure described above for CRBP2.
Crystals of CRBP1 in complex abn-CBD and its derivatives (abn-CBDO or CBDO) were grown essentially as described by Silvaroli et al (ACS Chem Biol. 2019, 15; 14(3)). The apo protein at 3 mg mL-1 was preincubated with 300 μM of a ligand in 10 mM Tris-HCl buffer, pH 8.0, 150 mM NaCl for 15 min on ice. This sample (1 μL) was mixed in 1:1 ratio with a crystallization solution composed of 0.1 M BisTris, pH 5.5, and 25% poly(ethylene glycol) (PEG) 3350 (w/v). Crystals of CRBP3 with abn-CBD were obtained by preincubating apoprotein at 8 mg mL-1 with 300 μM of the ligand for 15 min and setting up crystallization drops by mixing 1 μL of the protein sample with 1 μL of 0.2 M sodium malonate, pH 5.0 and 20% PEG 3350 (w/v) solution. For CRBP4, the crystallization conditions included 0.2 M NaCl, 0.1 M BisTris, pH 6.5, and 25% PEG 3350 (w/v). Similar to the other CRBPs, CRBP4 (6 mg mL^−1) was preincubated with abn-CBD prior to the crystallization. All of the protein crystals were obtained by the sitting drop vapor diffusion method at RT. […]

For a further experiment, the target named is T2, LRAT (Bos taurus, UniProt Q9BGL2).
T2 construct: from tissue; host or cells: bovine RPE microsomes
T2 sequence (Q9BGL2 1-230): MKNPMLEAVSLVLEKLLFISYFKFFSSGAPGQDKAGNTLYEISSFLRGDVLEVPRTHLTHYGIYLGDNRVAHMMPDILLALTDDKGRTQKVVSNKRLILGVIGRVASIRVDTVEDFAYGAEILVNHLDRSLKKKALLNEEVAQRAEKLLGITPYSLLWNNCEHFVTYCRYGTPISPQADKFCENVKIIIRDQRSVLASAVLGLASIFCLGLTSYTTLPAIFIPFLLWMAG
Kind of experiment: Retinol esterification assay. The experiment is classed as biochemical. To be noted: bovine RPE microsomes preincubated with 10-50 μM. The protocol:
The enzymatic activity of LRAT was assayed using isolated UV-treated bovine RPE microsomes as described previously. The reaction mixture included 20 mM Tris/HCl buffer, pH 7.4, 1 mM DTT, 1% bovine serum albumin (BSA; w/v), and RPE microsomes (˜100 μg of total protein) in the total volume of 0.1 mL. To test the influence of abn-CBD on the LRAT activity, 10, 20, or 50 μM of this compound was added prior to the addition of atROL (final concentration of 10 μM). To record the initial rate of the esterification, the mixture was incubated at RT for 5 min. The reaction was quenched with 0.2 mL of methanol, and the retinoids were extracted with 0.3 mL of hexane. The extracted retinoids were separated on a normal phase column (Agilent Zorbax Sil 5 μm 4.6×250 mm) in an isocratic flow of 10% ethyl acetate in hexane (flow rate of 1.5 mL min^−1). Elution of retinoids was monitored at 325 nm. All-trans-retinyl esters were quantified based on a correlation between the amount of injected synthetic standards and the area under chromatographic peaks.
Thus, to further probe the biological effect of this compound, we tested its effect on the key enzymes of the visual cycle. […]

For `C=C(C)[C@@H]1CCC(C)=C[C@H]1c1c(O)cc(O)cc1CCCCC` [abn-CBD, 4-[(1R,6R)-3-Methyl-6-prop-1-en-2-ylcyclohex-2-en-1-yl]-5-pentylbenzene-1,3-diol], at CRBP3, the “binding to CRBP3” value is listed as “bind abn-CBD similarly to CRBP1”. For the same compound, on LRAT, the “effect on enzymatic activity of LRAT” value is on record as “did not cause a measurable decline”.
